Reference: publication PMC9544187 (Environmental Toxicology and Chemistry, 2022)
Like-named read-outs stand apart in the source and are kept apart here.

Experiments:
[1] = Urinary concentrations of NNI compounds in wild raccoons; assay type: in vivo, raccoon, Procyon lotor; settings: for Percentile 25th urinary concentration / Percentile 50th urinary concentration / Percentile 75th urinary concentration / Percentile 95th urinary concentration / Percentile 100th urinary concentration / GM ± SD urinary concentration: raccoon urine, n = 59
[2] = Japanese people, n = 45; ref Ikenaka et al. ([2019]); cited from earlier work
[3] = obtained from previous studies on humans; ref Ikenaka et al., [2019]; cited from earlier work
[4] = mice, 78‐week carcinogenicity study; ref Hirano et al., [2018]; cited from earlier work
[5] = Raccoons: present study (n = 59)

CCN(Cc1ccc(Cl)nc1)/C(=C/[N+](=O)[O-])NC [Nitenpyram, nitenpyram]
Maximum urinary neonicotinoid concentration [1, 5]: 0 µg/g creatinine | Mean urinary neonicotinoid concentration [1, 5]: 0 µg/g creatinine | Percentile 25th urinary concentration ([1]; creatinine‐adjusted): <PQL | Percentile 50th urinary concentration ([1]; creatinine‐adjusted): <PQL | Percentile 75th urinary concentration ([1]; creatinine‐adjusted): <PQL | Percentile 95th urinary concentration ([1]; creatinine‐adjusted): <PQL | Percentile 100th urinary concentration ([1]; creatinine‐adjusted): <PQL | Percentile 25th urinary concentration ([1]; volume‐adjusted): <PQL | Percentile 50th urinary concentration ([1]; volume‐adjusted): <PQL | Percentile 75th urinary concentration ([1]; volume‐adjusted): <PQL | Percentile 95th urinary concentration ([1]; volume‐adjusted): <PQL | Percentile 100th urinary concentration ([1]; volume‐adjusted): <PQL | Maximum urinary neonicotinoid concentration [2]: 1.25 µg/g creatinine | Mean urinary neonicotinoid concentration [2]: 0.1 µg/g creatinine

CN/C(=N/CC1CCOC1)N[N+](=O)[O-] (stereo not drawn) [Dinotefuran, dinotefuran]
Mean urinary neonicotinoid concentration [1, 5]: 0.74 µg/g creatinine | GM ± SD urinary concentration ([1]; creatinine‐adjusted): 0.37 ± 1.64 μg/g creatinine | Percentile 25th urinary concentration ([1]; creatinine‐adjusted): <PQL | Percentile 50th urinary concentration ([1]; creatinine‐adjusted): <PQL | Percentile 75th urinary concentration ([1]; creatinine‐adjusted): <PQL | Percentile 95th urinary concentration ([1]; creatinine‐adjusted): 1.38 µg/g creatinine | Percentile 100th urinary concentration ([1]; creatinine‐adjusted): 10.28 µg/g creatinine | GM ± SD urinary concentration ([1]; volume‐adjusted): 0.25 ± 0.76 µg/L | Percentile 25th urinary concentration ([1]; volume‐adjusted): <PQL | Percentile 50th urinary concentration ([1]; volume‐adjusted): <PQL | Percentile 75th urinary concentration ([1]; volume‐adjusted): <PQL | Percentile 95th urinary concentration ([1]; volume‐adjusted): 1.11 µg/L | Percentile 100th urinary concentration ([1]; volume‐adjusted): 5.67 µg/L | Maximum urinary neonicotinoid concentration [2]: 9.49 µg/g creatinine | Mean urinary neonicotinoid concentration [2]: 0.57 µg/g creatinine | urinary excretion correction coefficient r [3]: 0.899

O=[N+]([O-])NC1=NCCN1Cc1ccc(Cl)nc1 [Imidacloprid, imidacloprid]
Mean urinary neonicotinoid concentration [1, 5]: 0.23 µg/g creatinine | GM ± SD urinary concentration ([1]; creatinine‐adjusted): 0.08 ± 0.75 μg/g creatinine | Percentile 25th urinary concentration ([1]; creatinine‐adjusted): <PQL | Percentile 50th urinary concentration ([1]; creatinine‐adjusted): <PQL | Percentile 75th urinary concentration ([1]; creatinine‐adjusted): <PQL | Percentile 95th urinary concentration ([1]; creatinine‐adjusted): 0.43 µg/g creatinine | Percentile 100th urinary concentration ([1]; creatinine‐adjusted): 5.76 µg/g creatinine | GM ± SD urinary concentration ([1]; volume‐adjusted): 0.06 ± 0.20 µg/L | Percentile 25th urinary concentration ([1]; volume‐adjusted): <PQL | Percentile 50th urinary concentration ([1]; volume‐adjusted): <PQL | Percentile 75th urinary concentration ([1]; volume‐adjusted): <PQL | Percentile 95th urinary concentration ([1]; volume‐adjusted): 0.36 µg/L | Percentile 100th urinary concentration ([1]; volume‐adjusted): 1.45 µg/L | Maximum urinary neonicotinoid concentration [2]: 1.59 µg/g creatinine | Mean urinary neonicotinoid concentration [2]: 0.13 µg/g creatinine | urinary excretion correction coefficient r [3]: 0.133

CN1COCN(Cc2cnc(Cl)s2)/C1=N\[N+](=O)[O-] [Thiamethoxam, thiamethoxam]
Mean urinary neonicotinoid concentration [1, 5]: 0.29 µg/g creatinine | GM ± SD urinary concentration ([1]; creatinine‐adjusted): 0.10 ± 0.95 μg/g creatinine | Percentile 25th urinary concentration ([1]; creatinine‐adjusted): <PQL | Percentile 50th urinary concentration ([1]; creatinine‐adjusted): <PQL | Percentile 75th urinary concentration ([1]; creatinine‐adjusted): <PQL | Percentile 95th urinary concentration ([1]; creatinine‐adjusted): 0.5 µg/g creatinine | Percentile 100th urinary concentration ([1]; creatinine‐adjusted): 6.96 µg/g creatinine | GM ± SD urinary concentration ([1]; volume‐adjusted): 0.07 ± 0.95 µg/L | Percentile 25th urinary concentration ([1]; volume‐adjusted): <PQL | Percentile 50th urinary concentration ([1]; volume‐adjusted): <PQL | Percentile 75th urinary concentration ([1]; volume‐adjusted): <PQL | Percentile 95th urinary concentration ([1]; volume‐adjusted): 0.42 µg/L | Percentile 100th urinary concentration ([1]; volume‐adjusted): 7.30 µg/L | Maximum urinary neonicotinoid concentration [2]: 2.11 µg/g creatinine | Mean urinary neonicotinoid concentration [2]: 0.17 µg/g creatinine | urinary excretion correction coefficient r [3]: 0.6

C/C(=N\C#N)N(C)Cc1ccc(Cl)nc1 [Acetamiprid, acetamiprid]
Mean urinary neonicotinoid concentration [1, 5]: 0.28 µg/g creatinine | GM ± SD urinary concentration ([1]; creatinine‐adjusted): 0.10 ± 0.74 μg/g creatinine | Percentile 25th urinary concentration ([1]; creatinine‐adjusted): <PQL | Percentile 50th urinary concentration ([1]; creatinine‐adjusted): <PQL | Percentile 75th urinary concentration ([1]; creatinine‐adjusted): 0.25 µg/g creatinine | Percentile 95th urinary concentration ([1]; creatinine‐adjusted): 0.79 µg/g creatinine | Percentile 100th urinary concentration ([1]; creatinine‐adjusted): 5.61 µg/g creatinine | GM ± SD urinary concentration ([1]; volume‐adjusted): 0.07 ± 0.20 µg/L | Percentile 25th urinary concentration ([1]; volume‐adjusted): <PQL | Percentile 50th urinary concentration ([1]; volume‐adjusted): <PQL | Percentile 75th urinary concentration ([1]; volume‐adjusted): 0.23 µg/L | Percentile 95th urinary concentration ([1]; volume‐adjusted): 0.33 µg/L | Percentile 100th urinary concentration ([1]; volume‐adjusted): 1.29 µg/L | Maximum urinary neonicotinoid concentration [2]: 1.03 µg/g creatinine | Mean urinary neonicotinoid concentration [2]: 0.043 µg/g creatinine | urinary excretion correction coefficient r [3]: 0.586

N#C/N=C1\SCCN1Cc1ccc(Cl)nc1 [Thiacloprid, thiacloprid]
Mean urinary neonicotinoid concentration [1, 5]: 0.09 µg/g creatinine | GM ± SD urinary concentration ([1]; creatinine‐adjusted): 0.03 ± 0.44 μg/g creatinine | Percentile 25th urinary concentration ([1]; creatinine‐adjusted): <PQL | Percentile 50th urinary concentration ([1]; creatinine‐adjusted): <PQL | Percentile 75th urinary concentration ([1]; creatinine‐adjusted): <PQL | Percentile 95th urinary concentration ([1]; creatinine‐adjusted): <PQL | Percentile 100th urinary concentration ([1]; creatinine‐adjusted): 3.41 µg/g creatinine | GM ± SD urinary concentration ([1]; volume‐adjusted): 0.02 ± 0.04 µg/L | Percentile 25th urinary concentration ([1]; volume‐adjusted): <PQL | Percentile 50th urinary concentration ([1]; volume‐adjusted): <PQL | Percentile 75th urinary concentration ([1]; volume‐adjusted): <PQL | Percentile 95th urinary concentration ([1]; volume‐adjusted): <PQL | Percentile 100th urinary concentration ([1]; volume‐adjusted): 0.32 µg/L | Maximum urinary neonicotinoid concentration [2]: 0.2 µg/g creatinine | Mean urinary neonicotinoid concentration [2]: 0.03 µg/g creatinine | urinary excretion correction coefficient r [3]: 0.05

C/C(=N\C#N)NCc1ccc(Cl)nc1 [N‐dm‐acetamiprid, N‐desmethyl‐acetamiprid]
Mean urinary neonicotinoid concentration [1, 5]: 2.48 µg/g creatinine | GM ± SD urinary concentration ([1]; creatinine‐adjusted): 0.16 ± 10.78 μg/g creatinine | Percentile 25th urinary concentration ([1]; creatinine‐adjusted): <PQL | Percentile 50th urinary concentration ([1]; creatinine‐adjusted): <PQL | Percentile 75th urinary concentration ([1]; creatinine‐adjusted): 0.35 µg/g creatinine | Percentile 95th urinary concentration ([1]; creatinine‐adjusted): 8.28 µg/g creatinine | Percentile 100th urinary concentration ([1]; creatinine‐adjusted): 76.56 µg/g creatinine | GM ± SD urinary concentration ([1]; volume‐adjusted): 0.11 ± 9.33 µg/L | Percentile 25th urinary concentration ([1]; volume‐adjusted): <PQL | Percentile 50th urinary concentration ([1]; volume‐adjusted): <PQL | Percentile 75th urinary concentration ([1]; volume‐adjusted): 0.22 µg/L | Percentile 95th urinary concentration ([1]; volume‐adjusted): 3.28 µg/L | Percentile 100th urinary concentration ([1]; volume‐adjusted): 71.28 µg/L | Maximum urinary neonicotinoid concentration [2]: 26.92 µg/g creatinine | Mean urinary neonicotinoid concentration [2]: 2.2 µg/g creatinine

CN/C(=N\[N+](=O)[O-])NCc1cnc(Cl)s1 [Clothianidin, clothianidin]
Mean urinary neonicotinoid concentration [1, 5]: 0.81 µg/g creatinine | GM ± SD urinary concentration ([1]; creatinine‐adjusted): 0.26 ± 1.65 μg/g creatinine | Percentile 25th urinary concentration ([1]; creatinine‐adjusted): <PQL | Percentile 50th urinary concentration ([1]; creatinine‐adjusted): 0.21 µg/g creatinine | Percentile 75th urinary concentration ([1]; creatinine‐adjusted): 0.43 µg/g creatinine | Percentile 95th urinary concentration ([1]; creatinine‐adjusted): 4 µg/g creatinine | Percentile 100th urinary concentration ([1]; creatinine‐adjusted): 9.4 µg/g creatinine | GM ± SD urinary concentration ([1]; volume‐adjusted): 0.17 ± 0.89 µg/L | Percentile 25th urinary concentration ([1]; volume‐adjusted): <PQL | Percentile 50th urinary concentration ([1]; volume‐adjusted): 0.14 µg/L | Percentile 75th urinary concentration ([1]; volume‐adjusted): 0.45 µg/L | Percentile 95th urinary concentration ([1]; volume‐adjusted): 2.62 µg/L | Percentile 100th urinary concentration ([1]; volume‐adjusted): 4.33 µg/L | Maximum urinary neonicotinoid concentration [2]: 15.06 µg/g creatinine | Mean urinary neonicotinoid concentration [2]: 1.06 µg/g creatinine | no‐observable‐adverse‐effect level (NOAEL) [4]: ~50 mg/kg | urinary excretion correction coefficient r [3]: 0.596
